Experimental data taken from the supplement of paper PMC10307832.

Tests used:
Experiment in all cases: relative viability (nuclei count vs DMSO), 5 days (fraction); higher = more cells survive
CUDC-101 + OSI-027 = compound: C#Cc1cccc(Nc2ncnc3cc(OC)c(OCCCCCCC(=O)NO)cc23)c1 [CUDC-101] + COc1cccc2cc(-c3nc([C@H]4CC[C@H](C(=O)O)CC4)n4ncnc(N)c34)[nH]c12 [OSI-027] (partner 0.5 µM)
Method in brief: (§1)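 Relative viability equals treated-well nuclei counts divided by vehicle-well nuclei counts. Counts came from 4× images of lung cancer cell lines grown in 1536-well plates for 5 days after pin-tool dosing on the day after seeding. Dosing used one drug alone or a fixed anchor-drug dose plus five library-drug doses (not always all listed) in √10 steps, and values are medians of duplicate plates.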

CUDC-101 + Foretinib = compound: C#Cc1cccc(Nc2ncnc3cc(OC)c(OCCCCCCC(=O)NO)cc23)c1 [CUDC-101] + COc1cc2c(Oc3ccc(NC(=O)C4(C(=O)Nc5ccc(F)cc5)CC4)cc3F)ccnc2cc1OCCCN1CCOCC1 [Foretinib] (partner 0.25 µM)
Method in brief: as §1

CUDC-101 + Decitabine = compound: C#Cc1cccc(Nc2ncnc3cc(OC)c(OCCCCCCC(=O)NO)cc23)c1 [CUDC-101] + Nc1ncn([C@H]2C[C@H](O)[C@@H](CO)O2)c(=O)n1 [Decitabine] (partner 2 µM)
Method in brief: as §1

CUDC-101 + AZD7762 = compound: C#Cc1cccc(Nc2ncnc3cc(OC)c(OCCCCCCC(=O)NO)cc23)c1 [CUDC-101] + NC(=O)Nc1cc(-c2cccc(F)c2)sc1C(=O)N[C@H]1CCCNC1 [AZD7762] (partner 0.2 µM)
Method in brief: as §1

| Cell Line | relative viability (CUDC-101 + OSI-027; first compound 0.01 µM) | relative viability (CUDC-101 + OSI-027; first compound 0.03162 µM) | relative viability (CUDC-101 + OSI-027; first compound 0.1 µM) | relative viability (CUDC-101 + OSI-027; first compound 0.3162 µM) | relative viability (CUDC-101 + OSI-027; first compound 1 µM) | relative viability (CUDC-101 + Foretinib; first compound 0.01 µM) | relative viability (CUDC-101 + Foretinib; first compound 0.03162 µM) | relative viability (CUDC-101 + Foretinib; first compound 0.1 µM) | relative viability (CUDC-101 + Foretinib; first compound 0.3162 µM) | relative viability (CUDC-101 + Foretinib; first compound 1 µM) | relative viability (CUDC-101 + Decitabine; first compound 0.01 µM) | relative viability (CUDC-101 + Decitabine; first compound 0.03162 µM) | relative viability (CUDC-101 + Decitabine; first compound 0.1 µM) | relative viability (CUDC-101 + Decitabine; first compound 0.3162 µM) | relative viability (CUDC-101 + Decitabine; first compound 1 µM) | relative viability (CUDC-101 + AZD7762; first compound 0.01 µM) | relative viability (CUDC-101 + AZD7762; first compound 0.03162 µM) | relative viability (CUDC-101 + AZD7762; first compound 0.1 µM) | relative viability (CUDC-101 + AZD7762; first compound 0.3162 µM) | relative viability (CUDC-101 + AZD7762; first compound 1 µM) |
| --- | --- | --- | --- | --- | --- | --- | --- | --- | --- | --- | --- | --- | --- | --- | --- | --- | --- | --- | --- | --- |
| NCI-H1563 | 0.732 | 0.751 | 0.783 | 0.728 | 0.675 | 0.925 | 0.872 | 0.851 | 0.895 | 0.87 | – | – | – | – | – | – | – | – | – | – |
| NCI-H1623 | 0.452 | 0.441 | 0.33 | 0.329 | 0.239 | 0.847 | 0.821 | 0.711 | 0.911 | 0.483 | – | – | – | – | – | – | – | – | – | – |
| NCI-H1648 | 0.265 | – | 0.243 | 0.266 | 0.254 | – | – | – | – | – | 0.548 | 0.519 | 0.439 | 0.451 | 0.324 | 0.846 | 0.566 | 0.646 | 0.45 | 0.361 |
| NCI-H1650 | 0.661 | 0.531 | 0.517 | 0.577 | 0.231 | 1.09 | 0.615 | 0.976 | 0.905 | 0.59 | 0.351 | 0.444 | 0.469 | 0.387 | 0.302 | – | – | – | – | – |
| NCI-H1703 | – | – | – | – | – | 0.323 | – | 0.353 | 0.402 | 0.424 | – | – | – | – | – | 0.141 | 0.117 | 0.11 | 0.116 | 0.125 |
| NCI-H1792 | 0.777 | 0.649 | 0.731 | 0.715 | 0.629 | – | – | – | – | – | 0.561 | 0.437 | 0.602 | 0.553 | 0.424 | 0.789 | 0.513 | 0.687 | 0.653 | 0.423 |
